# ChEMBL document CHEMBL3286207, “Development of a new class of proteasome inhibitors with an epoxyketone warhead: Rational hybridization of non-peptidic belactosin derivatives and peptide epoxyketones” (Bioorg Med Chem, 2014)
# pIC50: −log10 of the molar value.
# Assays:
# [1] = tested on: HCT-116; assay: Cytotoxicity against human HCT116 cells assessed as growth inhibition after 72 hrs by CCK-8 assay; type: functional, cell-based; settings: HCT-116, 72 h
# [2] = target: 26S proteasome; assay: Inhibition of chymotrypsin-like of human 20S proteasome using chromophoric Suc-LLVY-AMC as substrate after 60 mins by fluorescence assay; type: protein-complex assay
pIC50 [2],Compound,pIC50 [1]
,CC[C@H](C)[C@@H]1C(=O)O[C@H]1C(=O)NCCC(COCc1ccccc1)COCc1ccccc1,< 5.00
5.64,CC(=O)N[C@@H](CC(=O)NCCC(COCc1ccccc1)COCc1ccccc1)C(=O)N[C@@H](CC(C)C)C(=O)[C@@]1(C)CO1,5.72
5.24,CC(=O)N[C@@H](CC(=O)NCCCCOCc1ccccc1)C(=O)N[C@@H](CC(C)C)C(=O)[C@@]1(C)CO1,5.54
